# What was measured:
# [1] = molecular target: T1, Beta-secretase 1 (Homo sapiens, UniProt P56817)
# [2] = molecular target: T1, Beta-secretase 1; remark: listed apart in the source
# T1 sequence (P56817 whole entry): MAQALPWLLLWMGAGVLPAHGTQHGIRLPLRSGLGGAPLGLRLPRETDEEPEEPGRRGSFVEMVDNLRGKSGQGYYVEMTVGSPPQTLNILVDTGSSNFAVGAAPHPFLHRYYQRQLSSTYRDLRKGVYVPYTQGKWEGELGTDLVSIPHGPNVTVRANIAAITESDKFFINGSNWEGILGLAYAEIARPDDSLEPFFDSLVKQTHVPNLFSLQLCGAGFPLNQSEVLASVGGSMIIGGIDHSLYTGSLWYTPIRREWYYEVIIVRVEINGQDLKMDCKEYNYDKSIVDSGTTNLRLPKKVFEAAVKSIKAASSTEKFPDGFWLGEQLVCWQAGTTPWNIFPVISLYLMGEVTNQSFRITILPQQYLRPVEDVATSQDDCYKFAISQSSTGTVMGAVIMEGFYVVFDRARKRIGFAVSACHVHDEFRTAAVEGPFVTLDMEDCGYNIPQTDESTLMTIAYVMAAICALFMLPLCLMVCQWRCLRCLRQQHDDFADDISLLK
SMILES,IC50 [1] [nM],IC50 [2] [nM]
CCCN(CCC)C(=O)c1cc(C)cc(C(=O)N[C@@H](Cc2cc(F)cc(F)c2)[C@H](O)[C@H]2C[C@@H](OC)CN2)c1,187,780
CCCCO[C@H]1CCN[C@@H]([C@@H](O)[C@H](Cc2cc(F)cc(F)c2)NC(=O)c2cc(C)cc(C(=O)N(CCC)CCC)c2)C1,7,160
CCCN(CCC)C(=O)c1cc(C)cc(C(=O)N[C@@H](Cc2cc(F)cc(F)c2)[C@H](O)[C@H]2C[C@@H](OCCOC)CCN2)c1,4,110
CCCN(CCC)C(=O)c1cc(C)cc(C(=O)N[C@@H](Cc2cc(F)cc(F)c2)[C@H](O)[C@H]2C[C@@H](Cc3ccc(OC)cc3)CCN2)c1,440,2000
CCCN(CCC)C(=O)c1cc(C)cc(C(=O)N[C@@H](Cc2cc(F)cc(F)c2)[C@H](O)[C@H]2CCCN2)c1,65,330
CCCN(CCC)C(=O)c1cc(C)cc(C(=O)N[C@@H](Cc2cc(F)cc(F)c2)[C@H](O)[C@H]2C[C@@H](OCC3CC3)CCN2)c1,6,121
CCCN(CCC)C(=O)c1cc(C)cc(C(=O)N[C@@H](Cc2cc(F)cc(F)c2)[C@H](O)[C@H]2C[C@@H](O)CN2)c1,89,1450
CCCN(CCC)C(=O)c1cc(C)cc(C(=O)N[C@@H](Cc2cc(F)cc(F)c2)[C@H](O)[C@H]2C[C@@H](OCC3CCCCC3)CCN2)c1,12,567
CCCN(CCC)C(=O)c1cc(C)cc(C(=O)N[C@@H](Cc2cc(F)cc(F)c2)[C@H](O)[C@H]2C[C@@H](CCc3ccccc3)CCN2)c1,191,1850
CCCN(CCC)C(=O)c1cc(C)cc(C(=O)N[C@@H](Cc2cc(F)cc(F)c2)[C@H](O)[C@H]2C[C@@H](OC(C)C)CCN2)c1,120,858
CCCN(CCC)C(=O)c1cc(C)cc(C(=O)N[C@@H](Cc2cc(F)cc(F)c2)[C@H](O)[C@H]2C[C@@H](C3CCCCC3)CCN2)c1,610,4200
CCCN(CCC)C(=O)c1cc(C)cc(C(=O)N[C@@H](Cc2cc(F)cc(F)c2)[C@H](O)[C@H]2C[C@@H](Cc3ccccc3OC)CCN2)c1,1350,–
CCCN(CCC)C(=O)c1cc(C)cc(C(=O)N[C@@H](Cc2cc(F)cc(F)c2)[C@H](O)[C@H]2C[C@@H](OCCN(C)C)CCN2)c1,26,482
CCC[C@H]1CCN[C@@H]([C@@H](O)[C@H](Cc2cc(F)cc(F)c2)NC(=O)c2cc(C)cc(C(=O)N(CCC)CCC)c2)C1,70,1200
CCCN(CCC)C(=O)c1cc(C)cc(C(=O)N[C@@H](Cc2cc(F)cc(F)c2)[C@H](O)[C@H]2CCN2)c1,770,2800
CCCN(CCC)C(=O)c1cc(C)cc(C(=O)N[C@@H](Cc2cc(F)cc(F)c2)[C@H](O)[C@H]2C[C@@H](Cc3cccc(OC)c3)CCN2)c1,330,–
CCCN(CCC)C(=O)c1cc(C)cc(C(=O)N[C@@H](Cc2cc(F)cc(F)c2)[C@H](O)[C@H]2C[C@@H](OC(C)=O)CCN2)c1,2000,3000
CCCN(CCC)C(=O)c1cc(C)cc(C(=O)N[C@@H](Cc2cc(F)cc(F)c2)[C@H](O)[C@H]2C[C@@H](CC3CCCCC3)CCN2)c1,630,2000

# Source: ChEMBL document CHEMBL1142255, “Potent pyrrolidine- and piperidine-based BACE-1 inhibitors” (Bioorg Med Chem Lett, 2008)
